The values that follow are results of earlier work, collected in patent publication US7659260B2, “Tamponade compositions and methods for retinal repair” (priority 2005, dated 2010).

The conditions of data set [1]: at 25° C.
The conditions of data set [2]: reportedly; unless ingested in very large amounts.

Structures are written as SMILES.

Take `[2H]O[2H]` [Heavy water, deuterium-containing heavy water (D2O)]: the relative density in data set [1] is reported as 1.1044. In data set [2], the toxicity result was “non-toxic, unless ingested in very large amounts”.
